{
  "source": "patent US7132243B2",
  "about": "“Clonal expansion of T cells of unknown specificity and identification of ligand recognized by the clonally expanded T cells” (Juridical Foundation The Chemo-Sero-Therapeutic Research …, priority 2001, dated 2006)",
  "molecules": {"B1": {"name": "purified Cry j I protein: purified major allergen of Japanese cedar (Cryptomeria japonica) pollen (protein)", "chain": "DNPIDSCWRGDSNWAQNRMKLADCAVGFGSSTMGGKGGDLYTVTNSDDDPVNPAPGTLRYGATRDRPLWIIFSGNMNIKLKMPMYIAGYKTFDGRGAQVYIGNGGPCVFIKRVSNVIIHGLYLYGCSTSVLGNVLINESFGVEPVHPQDGDALTLRTATNIWIDHNSFSNSSDGLVDVTLTSTGVTISNNLFFNHHKVMLLGHDDAYSDDKSMKVTVAFNQFGPNCGQRMPRARYGLVHVANNNYDPWTIYAIGGSSNPTILSEGNSFTAPNESYKKQVTIRIGCKTSSSCSNWVWQSTQDVFYNGAYFVSSGKYEGGNIYTKKEAFNVENGNATPQLTKNAGVLTCSLSKRC"}},
  "test_system": "19.6.47 T cells",
  "assay": "Proliferation reaction of isolated T cell clone with cedar pollen antigen and synthetic peptide",
  "type": "cell-based, human",
  "details": "radiated (45 Gy) PBMC; FIG. 5",
  "method": "Purified Cry j I protein (closed bar: 50 μg/ml, hatched bar: […], and open bar: 0.5 μg/ml), Cry j I p301–321 (closed bar: 250 μM, hatched bar: 25 μM, and open bar: 2.5 μM), and irrelevant (irrelevant peptide: […](SEQ ID NO: 3)).\nThe donor of 19.6.47 T cells suffered from hay fever of Japanese cedar pollen and said T cells were established during heavy pollination season. In this respect, a major allergen of Japanese cedar pollen (Cryptomeria japonica I; Cry j I) among the three non-autologous peptides shown in Table 3 was considered to be a possible peptide ligand recognized by said T cell clone. Thus, a synthetic peptide Cry j I p301–321 ([…](SEQ ID NO: 4)) and purified Cry j I protein were examined for their reactivity with the 19.6.47 T cells. A major allergen of Japanese cedar (Cryptomeria japonica) pollen was purified as described in Matsushita, S. et al., J. Immunol., 1987, 138: 109–115.\nThe 19.6.47 T cells were cultured with radiated (45 Gy) PBMC either in the presence of purified Cry j I protein ([…]), Cry j I p301–321 peptide ([…]) or irrelevant peptide.",
  "note": "Where no end group is shown, it is not given here.",
  "data": [
    {"molecule": "DVFYNGAYFVSSGKYEGGNIY (SEQ ID NO: 4) [Cry j I p301–321]", "values": [
      {"measurement": "reactivity with the 19.6.47 T cells (proliferation)", "result": "reacted"}
    ]},
    {"molecule": "B1", "values": [
      {"measurement": "reactivity with the 19.6.47 T cells (proliferation)", "result": "reacted"}
    ]}
  ]
}
